# In US8084221B2, “Method of screening for a drug candidate that increases ATP release from RBCs stimulated via the Gs or Gi pathway” (Saint Louis University, priority 2006, dated 2011):
# Entries after “also recorded” stand apart in the source; their conditions may differ.
# What was measured:
# [1] = test system: PDE4; conditions: reported in reference [54]; cited from earlier work
# [2] = test system: human erythrocytes; assay: cAMP concentration in human erythrocytes (EIA); format: cell-based; conditions: for cAMP production / synthesis on incubation with activator: activator of Gs or Gi alone; for Mas7-induced cAMP accumulation in the presence of insulin: MAS7 10 μM, insulin pre-incubation; for cAMP accumulation in response to Gs/Gi activation or reduced O2 tension, in the presence of insulin: insulin at concentrations reported in plasma of humans with prediabetes
# Method: (§1) Erythrocytes (20% hct) were incubated with Mastoparan 7 (10 μM) or its vehicle in the presence or absence of 1 uM insulin. ATP release from erythrocytes was measured at 5 minute intervals using the luciferan/luciferase assay. In separate studies, erythrocytes (50% hct) were incubated with vehicle, 10 uM cilostazol, 100 μM cilostazol, […], 3 uM insulin, and/or 10 uM Mastoparan 7 for determination of cAMP concentration. At timed intervals, 4 mL of ice cold ethanol containing 1 mM HCl was added to 1 mL of RBC suspension. After centrifugation at 14,000×g at 4° C. for 10 min., the supernatant was dried under vacuum. Samples were resuspended in assay buffer and cAMP concentration was determined in duplicate by EIA.
# (§2) Protocol A: Washed erythrocytes are incubated with insulin (0.1 nM-1 μM, Humalog®), or its vehicle (saline) for 30 min [28, 29, 47, 60]. Erythrocytes are incubated with either iloprost (1 μM), isoproterenol (10 μM) (receptor-mediated activators of Gs) or mastoparan 7 (MAS7, 10 μM) (a direct activator of Gi) or their vehicle (saline). After 15 min, cAMP accumulation and ATP release will be determined.
# After 30 min, the cells were incubated with either iloprost (1 μM), isoproterenol (10 μM), MAS7 (10 μM) or exposed to reduce O2 tension and cAMP accumulation and ATP release was determined. Control experiments: Identical experiments were performed with the vehicles for the various inhibitors. […] The concentrations chosen for rolipram and sildenafil PDE are those reported to be specific for the PDEs indicated.
# Measurement of cAMP: 1 ml of erythrocyte suspension was added to 4 ml of ice cold ethanol containing 1 mM HCl and the mixture was centrifuged at 21,000×g for 10 minutes at 4° C. The supernatant was removed and stored overnight at −20° C. to precipitate remaining proteins. Samples were centrifuged a second time at 3,700×g for 10 minutes at 4° C. The supernatant was removed and dried under vacuum centrifugation. Concentrations of cAMP were determined by EIA.
# [3] = test system: RBCs derived from humans having type 2 diabetes; assay: MAS7-induced ATP release by RBCs from humans with type 2 diabetes; format: cell-based, human; conditions: type 2 diabetic RBCs, stimulation via the Gi pathway (MAS7), compared with RBCs of healthy individuals, FIG. 7
# Method: as §1
# (§3) Measurement of ATP: ATP was measured using the luciferin-luciferase assay. A 200 μL sample of an erythrocyte suspension was injected into a cuvette containing 100 μL of 10 mg/ml crude firefly tail extract and 100 μL of a 0.5 mg/ml solution of D-luciferin. The light emitted from the reaction of ATP with the crude firefly tail extract was measured using a luminometer designed to detect a wavelength of 565 nm. The peak light emitted was compared to an ATP standard curve generated on the day of the experiment.
# [4] = test system: human erythrocytes; assay: ATP release from human erythrocytes (luciferin-luciferase assay); format: cell-based; conditions: for ATP release on incubation with activator: activator of Gs or Gi alone; for Mas7-induced ATP release in the presence of insulin: MAS7 10 μM, insulin 1 μM pre-incubation; for ATP release in response to Gs/Gi activation or reduced O2 tension, in the presence of insulin: insulin at concentrations reported in plasma of humans with prediabetes
# Method: as §1, §2
# Protocol C: To determine effects of direct activation of adenylyl cyclase and active cAMP analogs on ATP release from erythrocytes in the presence of insulin, washed erythrocytes are incubated with insulin (0.1 nM-1 μM) or its vehicle (saline). After 30 min, the cells are incubated with either the non-selective activator of adenylyl cyclase (AC) activity, forskolin (1 to 10 μM), or one of two active cAMP analogs that are resistant to degradation, SpcAMP (10 to 100 μM) or 8-bromo-cAMP (10 to 100 μM). ATP release will be measured at 5, 10 and 15 min after addition of forskolin or the active cAMP analogs. Controls: To ensure the effects of forskolin or the cAMP analogs are not due to effects of vehicle or time, identical experiments are conducted using their vehicles, N,Ndimethylformamide (DMF) or saline, respectively, in lieu of the active agent. Total intracellular ATP and free hemoglobin, a measurement of erythrocyte lysis, is determined.
# as §3
# Exposure of Erythrocytes to Reduced Oxygen Tension: Washed erythrocytes were diluted in Krebs buffer containing bicarbonate (4.7 KCl, 2.0 mM CaCl2, 140.5 mM NaCl, 1.2 mM MgSO4) and equilibrated for 30 minutes in a tonometer (15% O2, 5% CO2, balance N2) (normoxia). Erythrocytes were then exposed to hypoxia by changing the equilibrating gas to 5% O2, 5% CO2, balance N2. ATP released from the erythrocytes as well as pH and blood gas tensions were determined at 5, 10 and 15 min after exposure to the various gas tensions. In separate studies, samples were collected into acidified ethanol for cAMP measurement.
# [5] = test system: human erythrocytes; assay: Total intracellular ATP of erythrocytes; format: cell-based; conditions: human erythrocytes pre-incubated with insulin 1 μM
# Method: Measurement of Total Intracellular ATP: A known number of erythrocytes was lysed in distilled water at room temperature. ATP in the lysate, diluted 8,000 fold, was measured using ATP assay and the values normalized to ATP concentration per erythrocyte.
compound,measurement,setting,value
O=C1CCc2cc(OCCCCc3nnnn3C3CCCCC3)ccc2N1 [cilostazol],concentrations inhibiting PDE4 activity relative to those used here,[1],ten-fold greater
same,iloprost-induced cAMP accumulation after cilostazol pre-treatment,[2]; FIG. 11,concentration-dependent increases
same,basal cAMP levels,[2]; in the presence of cilostazol,increased
same,MAS7-induced ATP release by diabetic RBCs treated with cilostazol,[3],normal levels of ATP
same,MAS7-induced ATP release by diabetic RBCs treated with cilostazol,[3]; listed as CILO,not significantly different from the levels released by RBCs of healthy individuals
"CC#CCC(C)[C@H](O)/C=C/[C@@H]1[C@H]2C/C(=C/CCCC(=O)O)C[C@H]2C[C@H]1O (stereo partly drawn) [iloprost, reference compound]",cAMP production / synthesis on incubation with activator,[2],stimulate
same,ATP release on incubation with activator,[4],stimulate
"CC(C)NCC(O)c1ccc(O)c(O)c1 (stereo not drawn) [isoproterenol, reference compound]",cAMP production / synthesis on incubation with activator,[2],stimulate
same,ATP release on incubation with activator,[4],stimulate
"COc1ccc(C2CNC(=O)C2)cc1OC1CCCC1 (stereo not drawn) [rolipram, reference compound]",iloprost-induced cAMP accumulation with rolipram,"[2]; rolipram 30 μM, n=6",no effect
Mastoparan 7 [reference compound],cAMP production / synthesis on incubation with activator,[2],increased cAMP production
same,cAMP production / synthesis on incubation with activator,[2]; listed as MAS7,stimulate
same,ATP release on incubation with activator,[4],ATP release
same,ATP release on incubation with activator,[4]; listed as MAS7,stimulate
insulin: insulin incubated with erythrocytes; Humalog or regular human insulin in the protocols,total ATP content,[5],absence of changes
same,Mas7-induced cAMP accumulation in the presence of insulin,[2]; FIG. 8,greater at lower (nM) insulin concentrations; also recorded: decline; also recorded: decreases; also recorded: reduces; also recorded: inhibition
same,Mas7-induced cAMP accumulation in the presence of insulin,"[2]; FIG. 8, listed as Insulin",reduces
same,"cAMP accumulation in response to Gs/Gi activation or reduced O2 tension, in the presence of insulin",[2],inhibited; also recorded: limit; also recorded: decreases
same,"cAMP accumulation in response to Gs/Gi activation or reduced O2 tension, in the presence of insulin",[2]; listed as Insulin,decreases
same,Mas7-induced ATP release in the presence of insulin,[4]; FIG. 9,inhibit; also recorded: decline; also recorded: decreases; also recorded: reduces; also recorded: attenuated
same,Mas7-induced ATP release in the presence of insulin,"[4]; FIG. 9, listed as Insulin",reduces
same,"ATP release in response to Gs/Gi activation or reduced O2 tension, in the presence of insulin",[4],inhibits; also recorded: attenuates
same,"ATP release in response to Gs/Gi activation or reduced O2 tension, in the presence of insulin",[4]; listed as Insulin,attenuates
same,"ATP release in response to active cAMP analogs resistant to hydrolysis by PDEs, in the presence of insulin",[4]; insulin pretreatment,no effect
